Assay: molar heat capacity at constant pressure
Conditions: Flow calorimetry

CCF [fluoroethane]
Conditions	molar heat capacity at constant pressure [J/K/mol]
303.42 K, 1340 kPa, Liquid	107.27
303.47 K, 1930 kPa, Liquid	106.74
303.48 K, 6470 kPa, Liquid	102.68
303.49 K, 9530 kPa, Liquid	100.86
303.5 K, 2520 kPa, Liquid	106.24
303.5 K, 8030 kPa, Liquid	101.83
303.5 K, 10100 kPa, Liquid	100.8
303.51 K, 7100 kPa, Liquid	102.32
303.51 K, 11050 kPa, Liquid	100.2
303.52 K, 5200 kPa, Liquid	103.84
303.52 K, 8440 kPa, Liquid	101.93
303.52 K, 10520 kPa, Liquid	100.64
303.52 K, 11560 kPa, Liquid	100.42
303.53 K, 3000 kPa, Liquid	106.02
303.53 K, 5540 kPa, Liquid	103.57
303.53 K, 5980 kPa, Liquid	103.24
303.53 K, 7520 kPa, Liquid	102.26
303.53 K, 9130 kPa, Liquid	101.37
303.54 K, 12050 kPa, Liquid	100.01
303.55 K, 3510 kPa, Liquid	105.63
303.55 K, 4550 kPa, Liquid	104.88
303.57 K, 4010 kPa, Liquid	105.42
313.31 K, 2010 kPa, Liquid	110.61
313.33 K, 3080 kPa, Liquid	109.26
313.35 K, 2560 kPa, Liquid	110.04
313.35 K, 3500 kPa, Liquid	108.56
313.36 K, 4000 kPa, Liquid	108.09
313.37 K, 4510 kPa, Liquid	107.49
313.37 K, 7030 kPa, Liquid	104.99
313.38 K, 8490 kPa, Liquid	103.71
313.38 K, 9510 kPa, Liquid	102.92
313.39 K, 5070 kPa, Liquid	107.08
313.39 K, 7490 kPa, Liquid	104.67
313.4 K, 9090 kPa, Liquid	103.61
313.4 K, 10010 kPa, Liquid	102.8
313.41 K, 1510 kPa, Liquid	112.39
313.41 K, 6080 kPa, Liquid	106.37
313.42 K, 5490 kPa, Liquid	106.99
313.42 K, 7980 kPa, Liquid	104.69
313.42 K, 10490 kPa, Liquid	102.75
313.43 K, 6510 kPa, Liquid	106.03
313.43 K, 10980 kPa, Liquid	102.52
313.47 K, 11470 kPa, Liquid	102.55
315.33 K, 1020 kPa, Gas	77.84
315.39 K, 1110 kPa, Gas	80.21
315.56 K, 1220 kPa, Gas	83.09
324.11 K, 2050 kPa, Liquid	115.84
324.13 K, 2570 kPa, Liquid	114.7
324.13 K, 8110 kPa, Liquid	105.47
324.14 K, 5980 kPa, Liquid	108.6
324.15 K, 3000 kPa, Liquid	113.84
324.15 K, 8550 kPa, Liquid	105.2
324.16 K, 4060 kPa, Liquid	111.82
324.16 K, 6470 kPa, Liquid	107.92
324.16 K, 7520 kPa, Liquid	106.39
324.17 K, 5510 kPa, Liquid	109.38
324.17 K, 10040 kPa, Liquid	103.35
324.18 K, 3500 kPa, Liquid	113.06
324.18 K, 4510 kPa, Liquid	111.09
324.19 K, 7020 kPa, Liquid	107.27
324.19 K, 9040 kPa, Liquid	104.9
324.19 K, 10510 kPa, Liquid	103.17
324.19 K, 11010 kPa, Liquid	102.91
324.21 K, 5030 kPa, Liquid	110.51
324.21 K, 9450 kPa, Liquid	104.56
324.21 K, 11610 kPa, Liquid	102.46
324.22 K, 12030 kPa, Liquid	102.24
325.23 K, 1300 kPa, Gas	79.4
325.26 K, 1210 kPa, Gas	77.2
325.57 K, 1110 kPa, Gas	75.5
333.86 K, 2520 kPa, Liquid	124.88
333.92 K, 3010 kPa, Liquid	123.2
333.97 K, 5000 kPa, Liquid	117.16
333.97 K, 5500 kPa, Liquid	115.91
333.98 K, 5990 kPa, Liquid	114.8
333.99 K, 3510 kPa, Liquid	121.92
333.99 K, 4620 kPa, Liquid	118.27
333.99 K, 9500 kPa, Liquid	108.39
334 K, 4070 kPa, Liquid	120.01
334 K, 6530 kPa, Liquid	113.92
334.01 K, 10060 kPa, Liquid	108
334.02 K, 7050 kPa, Liquid	112.82
334.03 K, 8960 kPa, Liquid	109.42
334.03 K, 10520 kPa, Liquid	107.4
334.03 K, 11040 kPa, Liquid	107.08
334.05 K, 7490 kPa, Liquid	112.09
334.05 K, 8350 kPa, Liquid	110.82
334.05 K, 11630 kPa, Liquid	106.69
334.07 K, 12280 kPa, Liquid	106.31
334.76 K, 1410 kPa, Gas	77.78
335.09 K, 1600 kPa, Gas	82.79
335.23 K, 1510 kPa, Gas	80.11
335.46 K, 1300 kPa, Gas	75.24
335.63 K, 1210 kPa, Gas	74.2
343.4 K, 2840 kPa, Liquid	135.92
343.44 K, 3020 kPa, Liquid	134.94
343.77 K, 3540 kPa, Liquid	133.68
343.84 K, 4040 kPa, Liquid	131.08
343.88 K, 4520 kPa, Liquid	129.17
343.89 K, 5970 kPa, Liquid	123.05
343.9 K, 6530 kPa, Liquid	121.47
343.9 K, 7040 kPa, Liquid	120.17
343.9 K, 7540 kPa, Liquid	118.86
343.91 K, 5560 kPa, Liquid	124.9
343.91 K, 8070 kPa, Liquid	117.76
343.91 K, 8530 kPa, Liquid	116.74
343.92 K, 9010 kPa, Liquid	115.78
343.92 K, 9480 kPa, Liquid	114.8
343.92 K, 10010 kPa, Liquid	113.86
343.92 K, 10500 kPa, Liquid	112.99
343.93 K, 5100 kPa, Liquid	126.98
343.93 K, 11010 kPa, Liquid	112.27
343.96 K, 11570 kPa, Liquid	111.8
343.99 K, 12130 kPa, Liquid	111.22
344.36 K, 2000 kPa, Gas	89.95
345.01 K, 1810 kPa, Gas	82.66
345.19 K, 1220 kPa, Gas	72.72
345.35 K, 1600 kPa, Gas	77.74
345.47 K, 1420 kPa, Gas	74.9
353.68 K, 3480 kPa, Liquid	157.19
353.77 K, 8480 kPa, Liquid	121.76
353.78 K, 7950 kPa, Liquid	123.23
353.79 K, 6470 kPa, Liquid	128.91
353.79 K, 9090 kPa, Liquid	120.56
353.79 K, 10010 kPa, Liquid	118.76
353.8 K, 7530 kPa, Liquid	124.7
353.8 K, 9570 kPa, Liquid	119.62
353.8 K, 10480 kPa, Liquid	117.97
353.81 K, 6000 kPa, Liquid	131.53
353.81 K, 7130 kPa, Liquid	126.37
353.81 K, 11040 kPa, Liquid	117.35
353.82 K, 4030 kPa, Liquid	149.07
353.82 K, 5500 kPa, Liquid	134.57
353.84 K, 11540 kPa, Liquid	116.89
353.85 K, 5030 kPa, Liquid	138.32
353.86 K, 4500 kPa, Liquid	143.57
353.87 K, 11950 kPa, Liquid	116.16
355.25 K, 1910 kPa, Gas	81.51
355.27 K, 1520 kPa, Gas	75.85
355.27 K, 1700 kPa, Gas	78.58
355.27 K, 2110 kPa, Gas	85.11
355.28 K, 1310 kPa, Gas	73.7
355.3 K, 1130 kPa, Gas	71.61
355.31 K, 2610 kPa, Gas	99.72
355.33 K, 2820 kPa, Gas	109.04
355.48 K, 2360 kPa, Gas	90.82
355.52 K, 2590 kPa, Gas	97.73
363.33 K, 4330 kPa, Liquid	193.61
363.59 K, 7000 kPa, Liquid	139.97
363.59 K, 7500 kPa, Liquid	136.22
363.59 K, 8480 kPa, Liquid	130.33
363.6 K, 8030 kPa, Liquid	132.67
363.61 K, 9520 kPa, Liquid	125.95
363.61 K, 10000 kPa, Liquid	123.85
363.62 K, 6030 kPa, Liquid	150.44
363.62 K, 6520 kPa, Liquid	144.76
363.63 K, 8990 kPa, Liquid	128.17
363.66 K, 5490 kPa, Liquid	159.6
363.66 K, 10580 kPa, Liquid	122.57
363.68 K, 11000 kPa, Liquid	121.51
363.7 K, 4990 kPa, Liquid	171.83
363.71 K, 11510 kPa, Liquid	120.57
363.75 K, 12010 kPa, Liquid	119.55
365.28 K, 2190 kPa, Gas	82.06
365.28 K, 2400 kPa, Gas	85.63
365.29 K, 2010 kPa, Gas	79.35
365.3 K, 1810 kPa, Gas	76.69
365.33 K, 2600 kPa, Gas	89.76
365.34 K, 1600 kPa, Gas	74.44
365.39 K, 1200 kPa, Gas	71.16
365.39 K, 1410 kPa, Gas	72.82
365.42 K, 2800 kPa, Gas	94.54
365.46 K, 2990 kPa, Gas	99.69
365.54 K, 3400 kPa, Gas	118.14
365.75 K, 3200 kPa, Gas	107.31
373.37 K, 5540 kPa, Liquid	218.6
373.47 K, 9520 kPa, Liquid	134.79
373.48 K, 9010 kPa, Liquid	138.16
373.53 K, 8500 kPa, Liquid	142.08
373.53 K, 9990 kPa, Liquid	132.61
373.53 K, 11480 kPa, Liquid	126.08
373.54 K, 8000 kPa, Liquid	146.44
373.55 K, 6030 kPa, Liquid	187.59
373.56 K, 6990 kPa, Liquid	159.83
373.56 K, 10990 kPa, Liquid	128.66
373.57 K, 7500 kPa, Liquid	151.89
373.58 K, 6510 kPa, Liquid	170.77
373.58 K, 10550 kPa, Liquid	130.44
383.1 K, 6560 kPa, Liquid	239.16
383.57 K, 7020 kPa, Liquid	204.1
383.71 K, 10040 kPa, Liquid	140.17
383.71 K, 10550 kPa, Liquid	136.16
383.74 K, 9490 kPa, Liquid	145.93
383.74 K, 11270 kPa, Liquid	132.02
383.78 K, 7490 kPa, Liquid	182.33
383.81 K, 9090 kPa, Liquid	151.38
383.86 K, 7980 kPa, Liquid	172.97
383.87 K, 8520 kPa, Liquid	160.93
383.88 K, 12030 kPa, Liquid	129.42

O [water]
Liquid
Conditions	molar heat capacity at constant pressure [J/K/mol]
304.24 K, 100 kPa	75.43
304.28 K, 3030 kPa	74.86
304.36 K, 11970 kPa	74.97
304.37 K, 6180 kPa	75.16
304.4 K, 9010 kPa	74.98
323.09 K, 90 kPa	75.69
323.13 K, 3180 kPa	75.16
323.15 K, 6040 kPa	74.94
323.17 K, 9000 kPa	74.7
323.19 K, 11970 kPa	74.58
371.11 K, 990 kPa	76.21
371.19 K, 2980 kPa	75.91
371.24 K, 5990 kPa	75.65
371.27 K, 9030 kPa	75.39
371.3 K, 12040 kPa	75.11
424.19 K, 12070 kPa	77.23
424.24 K, 1390 kPa	77.92
424.29 K, 3030 kPa	77.82
424.35 K, 6180 kPa	76.99
424.43 K, 9080 kPa	76.79
424.52 K, 15080 kPa	76.51
473.34 K, 2710 kPa	80.78
473.45 K, 6220 kPa	80.48
473.51 K, 9230 kPa	80.25
473.56 K, 12190 kPa	80.08
473.61 K, 15070 kPa	79.73
526 K, 6030 kPa	87.65
526.12 K, 9260 kPa	87.01
526.17 K, 12250 kPa	86.6
526.23 K, 15120 kPa	86.16
577.06 K, 9960 kPa	104.34
577.11 K, 11800 kPa	102.67
577.14 K, 13510 kPa	102.15
577.18 K, 15110 kPa	100.84
